# Experimental data from publication PMC3130785, “Small Compound 6-O-Angeloylplenolin Induces Mitotic Arrest and Exhibits Therapeutic Potentials in Multiple Myeloma” (PLoS ONE, 2011).
# How the values were obtained:
# U266 cells = assay: U266 xenograft murine model; format: in vivo, BALB/c nude mice
# Protocol: All mice used in this study were bred and maintained in a specific pathogen-free environment. BALB/c nude mice (6 to 7 weeks old) were obtained from the Shanghai Laboratory Animal Center (Shanghai, China), and maintained and monitored in a specific pathogen-free environment. All animal studies were conducted according to protocols approved by the Animal Ethics Committee of our institute. The mice were injected subcutaneously with 1×10^7 U266 cells in 100 µL RPMI-1640 media into the right flank. Treatments were started when the tumors reached a palpable size. The control group received vehicle (0.8% DMSO/18% Cremophor/8% Ethanol in normal saline), while the other two groups received intraperitoneally injection of 6-OAP (50 or 75 mg/kg per day, five times a week for 4 weeks). Caliper measurements of the longest perpendicular tumor diameters were performed twice a week to estimate the tumor volume, using the following formula: 4π/3× (width/2)^2× (length/2), representing the 3-dimensional volume of an ellipse. Animals were sacrificed when tumors reached 2 cm or if the mice appeared moribund to prevent unnecessary morbidity to the mice. At the time of the animals' death, tumors were excised; cells were separated and subjected to immunofluorescence analysis or lyzed for Western blotting.
# Figure 6 In vivo therapeutic efficacy of 6-OAP on human MM murine model. Nude mice were given subcutaneous inoculations in the right flank with 1×10^7 U266 cells. When the tumors reached a palpable size, the mice were treated intraperitoneally with vehicle or 6-OAP (50 or 75 mg/kg, 5 times a week for 4 weeks). […] (C) Survival curve of control and 6-OAP-treated mice. […] (E) Tumor samples were harvested from mice treated with vehicle or 50 mg/kg 6-OAP and subjected to immunofluorescence analysis using an anti-α-tubulin antibody and DAPI. (F) Tumor tissues were harvested from mice treated with vehicle or 50 mg/kg 6-OAP, whole-tissue lysates were subjected to Western blotting using an anti-cyclin B1 antibody. (G) The concentration-time profiles of 6-OAP after intravenous (30 mg/kg) or intraperitoneal (40 mg/kg) injection of 6-OAP in Sprague-Dawley rats.
# MM.1S cells = assay: MTT assay, 6-OAP combined with Dox, Dex or BOR; format: cell-based, human; conditions: 48 h, 6-OAP 5 µM, in particular Dox and BOR
# Protocol: U266, RPMI 8226 cells (1×10^4), primary CD138+ cells, PBMCs (5×10^4), and BMSCs (1×10^4) were cultured in 96-well dishes and incubated without or with 6-OAP at indicated concentration for 48 h. MM.1S and MM.1R cells (2×10^4) were seeded into 96-well dishes and pre-cultured for 24 h, then treated with 6-OAP for 48 h. Cell proliferation was determined by MTT assay. Cell viability was estimated by trypan blue dye exclusion.
# Figure 4 6-OAP enhances cytotoxicity of Dox, Dex and BOR to MM cells. (A through C) MM.1S cells were treated for 48 h with Dox (A), Dex (B) or BOR (C) in the presence or absence of 6-OAP at 5 µM. MTT assay was used to test the proliferation of MM.1S cells. (D) MM.1R cells were treated for 48 h with Dex in the presence or absence of 6-OAP at 7.5 µM. MTT assay was used to test the proliferation of MM.1R cells. *p<.001,** p<.05. (E) MM.1S cells were cultured with control media (con), 6-OAP (O, 5 µM), BOR (B, 3 nM), or 6-OAP (5 µM) plus BOR (3 nM) (OB) for indicated time points. Cells were then lysed and subjected to Western blotting using indicated antibodies. CF, cleavage fragment.
# Bacillus subtilis = tested on: Bacillus subtilis; parameters: method as in PMID 9461679, PMID 8657743, PMID 12521264; conditions: cited from earlier work
compound,measurement,setting,value
"CC=C(C)C(=O)OC1C2C(CC(C)C3C=CC(=O)C31C)OC(=O)C2C (stereo not shown) [6-OAP, 6-O-angeloylplenolin]",cyclin B1 in tumor tissues,"U266 cells; 50 mg/kg, Western blotting, vs control mice",accumulated
same,spindle formation in tumor samples,"U266 cells; 50 mg/kg, immunofluorescence, anti-α-tubulin",apparent spindle formation was detected
same,tumor growth,"U266 cells; 50 and 75 mg/kg ip, five times a week for four weeks, vs vehicle, P<.0001",significantly inhibited tumor growth
same,body weight of mice,"U266 cells; 50 or 75 mg/kg ip, 4 weeks",did not reduce body weight
same,survival,"U266 cells; 50 or 75 mg/kg ip, vs vehicle control",prolonged
same,"effect on cytotoxicity of Dox, Dex, BOR",MM.1S cells,significantly enhanced cytotoxicity
same,antibacterial activity,Bacillus subtilis,exhibit antibacterial activity
